# Reference: PubChem BioAssay (NCI)
#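 Cells were grown in 96-well plates and exposed to each compound for 48 hours at five concentrations; endpoints were interpolated linearly between bracketing concentrations, or set to the highest concentration if not reached. Abbreviation: GI50, concentration required for 50% inhibition of growth. At the TGI there is no net growth.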
# Assays:
# Test in all cases: NCI anticancer screen, dose series, 48 h
# HOP-62 NSCLC = test system: HOP-62 NSCLC
# MALME-3M melanoma = test system: MALME-3M melanoma
# NCI-H460 lung = test system: NCI-H460 lung
# HCC-2998 colon = test system: HCC-2998 colon
# SK-MEL-28 melanoma = test system: SK-MEL-28 melanoma
# OVCAR-3 ovarian = test system: OVCAR-3 ovarian
# A549 NSCLC = test system: A549 NSCLC
# NCI-H23 lung = test system: NCI-H23 lung
# DLD-1 colon = test system: DLD-1 colon
# SNB-75 CNS = test system: SNB-75 CNS
# RPMI-8226 leukemia = test system: RPMI-8226 leukemia
# NCI-H522 lung = test system: NCI-H522 lung
# SK-MEL-5 melanoma = test system: SK-MEL-5 melanoma
# ACHN renal = test system: ACHN renal
# UO-31 renal = test system: UO-31 renal
# OVCAR-4 ovarian = test system: OVCAR-4 ovarian
# TK-10 renal = test system: TK-10 renal
# MOLT-4 leukemia = test system: MOLT-4 leukemia
# SF-268 CNS = test system: SF-268 CNS
# SK-OV-3 ovarian = test system: SK-OV-3 ovarian
# SW-620 colon = test system: SW-620 colon
# KM20L2 colon = test system: KM20L2 colon
# HOP-92 NSCLC = test system: HOP-92 NSCLC
# SNB-78 CNS = test system: SNB-78 CNS
# SNB-19 CNS = test system: SNB-19 CNS
# OVCAR-8 ovarian = test system: OVCAR-8 ovarian
# HCT-116 colon = test system: HCT-116 colon
# KM12 colon = test system: KM12 colon
# UACC-257 melanoma = test system: UACC-257 melanoma
# HCT-15 colon = test system: HCT-15 colon
# HT29 colon = test system: HT29 colon
# UACC-62 melanoma = test system: UACC-62 melanoma
# SF-539 CNS = test system: SF-539 CNS
# A498 renal = test system: A498 renal
# M14 melanoma = test system: M14 melanoma
# U251 CNS = test system: U251 CNS
# LXFL 529 NSCLC = test system: LXFL 529 NSCLC
# IGROV1 ovarian = test system: IGROV1 ovarian
# DMS 273 small cell lung = test system: DMS 273 small cell lung
# SF-295 CNS = test system: SF-295 CNS
# EKVX NSCLC = test system: EKVX NSCLC
# LOX IMVI melanoma = test system: LOX IMVI melanoma
# OVCAR-5 ovarian = test system: OVCAR-5 ovarian
# K-562 leukemia = test system: K-562 leukemia
# CCRF-CEM leukemia = test system: CCRF-CEM leukemia
# 786-0 renal = test system: 786-0 renal
# SK-MEL-2 melanoma = test system: SK-MEL-2 melanoma
# SN12C renal = test system: SN12C renal
# COLO 205 colon = test system: COLO 205 colon
# DU-145 prostate = test system: DU-145 prostate
# MDA-MB-435 = test system: MDA-MB-435
# MDA-MB-231 breast = test system: MDA-MB-231 breast
# NCI-H226 lung = test system: NCI-H226 lung
# BT-549 breast = test system: BT-549 breast
# NCI/ADR-RES ovarian = test system: NCI/ADR-RES ovarian
# HS 578T breast = test system: HS 578T breast
# MDA-N = test system: MDA-N
# T-47D breast = test system: T-47D breast
# PC-3 prostate = test system: PC-3 prostate
# CAKI-1 renal = test system: CAKI-1 renal
# MCF7 breast = test system: MCF7 breast
# RXF 393 renal = test system: RXF 393 renal
# HL-60(TB) leukemia = test system: HL-60(TB) leukemia
# SR leukemia = test system: SR leukemia
smiles,measurement,setting,value
CC(C)CC(=O)[O-].N.N.N.N.N.[Co+3].[O-][Cl+3]([O-])([O-])[O-],GI50,HOP-62 NSCLC,> 100 µM
same,TGI,HOP-62 NSCLC,> 100 µM
same,GI50,MALME-3M melanoma,> 100 µM
same,TGI,MALME-3M melanoma,> 100 µM
same,GI50,NCI-H460 lung,> 100 µM
same,TGI,NCI-H460 lung,> 100 µM
same,GI50,HCC-2998 colon,> 100 µM
same,TGI,HCC-2998 colon,> 100 µM
same,GI50,SK-MEL-28 melanoma,> 100 µM
same,TGI,SK-MEL-28 melanoma,> 100 µM
same,GI50,OVCAR-3 ovarian,> 100 µM
same,TGI,OVCAR-3 ovarian,> 100 µM
same,GI50,A549 NSCLC,> 100 µM
same,TGI,A549 NSCLC,> 100 µM
same,GI50,NCI-H23 lung,> 100 µM
same,TGI,NCI-H23 lung,> 100 µM
same,GI50,DLD-1 colon,> 100 µM
same,TGI,DLD-1 colon,> 100 µM
same,GI50,SNB-75 CNS,22 µM
same,TGI,SNB-75 CNS,> 100 µM
same,GI50,RPMI-8226 leukemia,> 100 µM
same,TGI,RPMI-8226 leukemia,> 100 µM
same,GI50,NCI-H522 lung,> 100 µM
same,TGI,NCI-H522 lung,> 100 µM
same,GI50,SK-MEL-5 melanoma,> 100 µM
same,TGI,SK-MEL-5 melanoma,> 100 µM
same,GI50,ACHN renal,> 100 µM
same,TGI,ACHN renal,> 100 µM
same,GI50,UO-31 renal,85.7 µM
same,TGI,UO-31 renal,> 100 µM
same,GI50,OVCAR-4 ovarian,> 100 µM
same,TGI,OVCAR-4 ovarian,> 100 µM
same,GI50,TK-10 renal,> 100 µM
same,TGI,TK-10 renal,> 100 µM
same,GI50,MOLT-4 leukemia,70.8 µM
same,TGI,MOLT-4 leukemia,> 100 µM
same,GI50,SF-268 CNS,> 100 µM
same,TGI,SF-268 CNS,> 100 µM
same,GI50,SK-OV-3 ovarian,> 100 µM
same,TGI,SK-OV-3 ovarian,> 100 µM
same,GI50,SW-620 colon,> 100 µM
same,TGI,SW-620 colon,> 100 µM
same,GI50,KM20L2 colon,> 100 µM
same,TGI,KM20L2 colon,> 100 µM
same,GI50,HOP-92 NSCLC,> 100 µM
same,TGI,HOP-92 NSCLC,> 100 µM
same,GI50,SNB-78 CNS,> 100 µM
same,TGI,SNB-78 CNS,> 100 µM
same,GI50,SNB-19 CNS,> 100 µM
same,TGI,SNB-19 CNS,> 100 µM
same,GI50,OVCAR-8 ovarian,> 100 µM
same,TGI,OVCAR-8 ovarian,> 100 µM
same,GI50,HCT-116 colon,> 100 µM
same,TGI,HCT-116 colon,> 100 µM
same,GI50,KM12 colon,> 100 µM
same,TGI,KM12 colon,> 100 µM
same,GI50,UACC-257 melanoma,> 100 µM
same,TGI,UACC-257 melanoma,> 100 µM
same,GI50,HCT-15 colon,> 100 µM
same,TGI,HCT-15 colon,> 100 µM
same,GI50,HT29 colon,> 100 µM
same,TGI,HT29 colon,> 100 µM
same,GI50,UACC-62 melanoma,> 100 µM
same,TGI,UACC-62 melanoma,> 100 µM
same,GI50,SF-539 CNS,> 100 µM
same,TGI,SF-539 CNS,> 100 µM
same,GI50,A498 renal,> 100 µM
same,TGI,A498 renal,> 100 µM
same,GI50,M14 melanoma,> 100 µM
same,TGI,M14 melanoma,> 100 µM
same,GI50,U251 CNS,> 100 µM
same,TGI,U251 CNS,> 100 µM
same,GI50,LXFL 529 NSCLC,> 100 µM
same,TGI,LXFL 529 NSCLC,> 100 µM
same,GI50,IGROV1 ovarian,> 100 µM
same,TGI,IGROV1 ovarian,> 100 µM
same,GI50,DMS 273 small cell lung,> 100 µM
same,TGI,DMS 273 small cell lung,> 100 µM
same,GI50,SF-295 CNS,> 100 µM
same,TGI,SF-295 CNS,> 100 µM
same,GI50,EKVX NSCLC,> 100 µM
same,TGI,EKVX NSCLC,> 100 µM
same,GI50,LOX IMVI melanoma,> 100 µM
same,TGI,LOX IMVI melanoma,> 100 µM
same,GI50,OVCAR-5 ovarian,> 100 µM
same,TGI,OVCAR-5 ovarian,> 100 µM
same,GI50,K-562 leukemia,> 100 µM
same,TGI,K-562 leukemia,> 100 µM
same,GI50,CCRF-CEM leukemia,> 100 µM
same,TGI,CCRF-CEM leukemia,> 100 µM
same,GI50,786-0 renal,> 100 µM
same,TGI,786-0 renal,> 100 µM
same,GI50,SK-MEL-2 melanoma,> 100 µM
same,TGI,SK-MEL-2 melanoma,> 100 µM
same,GI50,SN12C renal,> 100 µM
same,TGI,SN12C renal,> 100 µM
same,GI50,COLO 205 colon,> 100 µM
same,TGI,COLO 205 colon,> 100 µM
COc1c(O)ccc(C2=Cc3ccc(O)cc3OC2)c1OC,TGI,DU-145 prostate,> 79.6 µM
same,TGI,HOP-62 NSCLC,62.4 µM
same,TGI,MALME-3M melanoma,65.7 µM
same,TGI,MDA-MB-435,> 92.2 µM
same,TGI,NCI-H460 lung,> 100 µM
same,TGI,MDA-MB-231 breast,> 80.7 µM
same,TGI,HCC-2998 colon,47.1 µM
same,TGI,SK-MEL-28 melanoma,> 94 µM
same,TGI,OVCAR-3 ovarian,34 µM
same,TGI,A549 NSCLC,> 78.9 µM
same,TGI,NCI-H23 lung,> 58.3 µM
same,TGI,SNB-75 CNS,> 58.3 µM
same,TGI,RPMI-8226 leukemia,> 26.8 µM
same,TGI,NCI-H522 lung,16.1 µM
same,TGI,SK-MEL-5 melanoma,38.5 µM
same,TGI,ACHN renal,> 63.4 µM
same,TGI,UO-31 renal,28.4 µM
same,TGI,OVCAR-4 ovarian,> 81.1 µM
same,TGI,TK-10 renal,> 100 µM
same,TGI,MOLT-4 leukemia,37 µM
same,TGI,NCI-H226 lung,> 65.4 µM
same,TGI,SF-268 CNS,> 100 µM
same,TGI,BT-549 breast,> 82.4 µM
same,TGI,SK-OV-3 ovarian,> 80.8 µM
same,TGI,SW-620 colon,> 100 µM
same,TGI,NCI/ADR-RES ovarian,> 67.9 µM
same,TGI,HS 578T breast,> 95.3 µM
same,TGI,HOP-92 NSCLC,> 74 µM
same,TGI,MDA-N,33.5 µM
same,TGI,SNB-19 CNS,> 100 µM
same,TGI,OVCAR-8 ovarian,> 62.5 µM
same,TGI,T-47D breast,> 82.3 µM
same,TGI,HCT-116 colon,> 61.7 µM
same,TGI,KM12 colon,33.4 µM
same,TGI,UACC-257 melanoma,> 89.7 µM
same,TGI,PC-3 prostate,84.4 µM
same,TGI,HCT-15 colon,37.3 µM
same,TGI,HT29 colon,> 89.5 µM
same,TGI,UACC-62 melanoma,> 50.7 µM
same,TGI,SF-539 CNS,35.3 µM
same,TGI,A498 renal,80.8 µM
same,TGI,M14 melanoma,66.8 µM
same,TGI,CAKI-1 renal,50 µM
same,TGI,U251 CNS,> 100 µM
same,TGI,IGROV1 ovarian,> 100 µM
same,TGI,SF-295 CNS,> 83.6 µM
same,TGI,MCF7 breast,> 100 µM
same,TGI,EKVX NSCLC,> 100 µM
same,TGI,LOX IMVI melanoma,> 100 µM
same,TGI,OVCAR-5 ovarian,97.7 µM
same,TGI,RXF 393 renal,> 63.5 µM
same,TGI,K-562 leukemia,45.8 µM
same,TGI,HL-60(TB) leukemia,10.7 µM
same,TGI,SR leukemia,17.1 µM
same,TGI,CCRF-CEM leukemia,> 96.7 µM
same,TGI,786-0 renal,> 63.5 µM
same,TGI,SK-MEL-2 melanoma,68 µM
same,TGI,SN12C renal,> 96.5 µM
same,TGI,COLO 205 colon,> 74 µM
